Calls of active or inactive are those of the source.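 How the source made its calls: active means compounds giving half or more protection of infected cells from virus-caused growth loss, again on retest; inactive means the rest.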 Where a SMILES comes first, the peptide text is derived from it. The star is where a group is joined. Myristoyl = CCCCCCCCCCCCCC(=O)*
Test system: CEM cells HIV-1 protection, formazan growth assay
Assay: NCI AIDS Antiviral Assay
Conditions: for IC50: measured here: growth of uninfected CEM cells
Method in brief: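 Protection of CEM cells against HIV-1 was scored from cell growth (soluble formazan) across five concentrations, with parallel uninfected cells. Lack of protection may reflect toxicity.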

| SMILES | EC50 [µM] | IC50 [µM] | outcome |
| --- | --- | --- | --- |
| c1csc(-c2cc(-c3ccsc3)c(-c3ccsc3)s2)c1 | > 200 | 148 |  |
| Nc1ccc(/C=C/c2ccc(N=Nc3ccc(/C=C/c4ccc(N)cc4S(=O)(=O)O)c(S(=O)(=O)O)c3)cc2S(=O)(=O)O)c(S(=O)(=O)O)c1 | 9.33 | 166 |  |
| CN(C)CCCN1c2ccccc2Sc2ccc(C(F)(F)F)cc21 | > 200 | 107 |  |
| O=C(CC(=O)N1N=C(n2ccc3ccccc32)CC1c1ccccc1)Nc1ccc(Cl)cc1 (centres undefined) | > 1.2 | > 1.2 |  |
| CC1=CCN(C2CC(C)C(=O)N2)C1=O (centres undefined) |  |  | inactive |
| NCCSS(=O)(=O)CCN | > 363 |  |  |
| COc1cccc(C(=O)O)c1Cc1cccc2ccccc12 |  |  | inactive |
| CCOC(=O)/N=N/C(C)(C)OC(C)=O | > 200 | > 200 |  |
| O=c1c2cc(-c3ccccc3)cnc2sn1-c1ccc(Br)cc1 | 110 | 186 |  |
| CC(C)Cn1cnnc1NS(=O)(=O)c1cc(C(=O)NN)c(Cl)cc1S | > 200 | > 200 |  |
| COC(=O)[C@@H]1C[C@@]2(C3C=CN(C(=O)C(F)(F)F)C=C3)c3ccccc3N(C(=O)C(F)(F)F)[C@H]2N1C(=O)OC | > 200 | 166 |  |
| CCOC(=O)/C(C=Nc1c(C)n(C)n(-c2ccccc2)c1=O)=C(/O)c1ccccc1 | > 200 | > 200 |  |
| Nn1c(SCC(=O)O)nc2ccccc2c1=O | > 200 | > 200 |  |
| S=C(N1CC1)N1CC1 | > 200 | 42.7 |  |
| OC(C1CCC=NN1C(O)(C(F)(F)F)C(F)(F)F)(C(F)(F)F)C(F)(F)F (centres undefined) | > 200 | 26.9 |  |
| CC(Oc1ccccc1)C(=O)NNC(=O)OC(C)(C)C (centres undefined) | > 200 | > 200 |  |
| O=C1NC(=O)C(=Cc2cccc(Br)c2)C(=O)N1 | > 123 | > 123 |  |
| COC(=O)C(C(=O)C(=O)NC1Nc2ccc(C)cc2S1)c1nc2ccc(Cl)cc2[nH]c1=O (centres undefined) | > 28.8 | > 28.8 |  |
| COC(=O)C([O][Ge]([CH3])([CH3])[CH3])c1ccccc1 (centres undefined) | > 251 | > 251 |  |
| c1ccc(-c2nc(-c3ccccc3)n3c(-c4ccccc4)nnc3n2)cc1 | > 14.8 | > 14.8 |  |
| O=C1Nc2ccccc2/C1=C/c1cc(Cl)cc(Cl)c1O (tested in a mixture with another compound) | > 200 | 44.7 |  |

| SMILES | EC50 [µM] | IC50 [µM] | outcome |
| --- | --- | --- | --- |
| Nc1c2c([nH]c(=O)c1N)CCC2 | > 200 | > 200 |  |
| COc1ccc([C@]23CCC4(OCC(C)(C)CO4)[C@H]4CON(O[C@H](O[C@@H]5CCCCC5C(C)(C)c5ccccc5)C2)[C@@H]43)cc1OC (some centres undefined) | > 50.1 | > 50.1 |  |
| C[N+]1(CC(=O)c2ccc(O)c(O)c2)CCOCC1 | > 200 | > 200 |  |
| Cc1ccnc(NC(NC(=O)c2ccccc2)(C(F)(F)F)C(F)(F)F)c1 |  |  | inactive |
| O=c1[nH]cnc2c1ncn2[C@@H]1C[C@@H]1CO | > 200 | > 200 |  |
| O=C(/N=N/C(=O)N1CCCCC1)N1CCCCC1 | > 67.6 | 28.8 |  |
| O=C1N(Cl)C2(c3ccccc3)N(Cl)C(=O)N(Cl)C2(c2ccccc2)N1Cl (centres undefined) | > 200 | > 200 |  |
| O=C(/C=C/c1ccc(O)cc1)OCC1OC(Oc2cc(O)c3c(c2)OC(c2ccc(O)cc2)CC3=O)C(O)C(O)C1O (centres undefined) | > 51.3 | 27.5 |  |
| CC(C)N(C(=O)C12C3C4C1C1C2C3C41C(O)C(C)(C)C)C(C)C (centres undefined) | 3.02 | 12 |  |
| CC1SC(=S)N(c2ccc(Cl)cc2)C1=O (centres undefined) | > 138 | 67.6 |  |
| Nc1nc(Cl)c(N)c(NCC2(CO)CC2)n1 | > 200 | > 200 |  |
| COC(=O)c1oc([N+](=O)[O-])c(-c2ccccc2)c1-c1ccccc1 | > 57.5 | > 57.5 |  |
| COC(=O)c1cc(C(=CCC[C@H]2CC[C@@]3(C)C(CC[C@@H]4C3CC[C@@]3(C)C4CC[C@@H]3[C@H](C)CCCC(C)C)C2)c2cc(Cl)c(OC)c(C(=O)OC)c2)cc(Cl)c1OC (some centres undefined) | > 15.8 | > 15.8 |  |
| CC1=N/C(=C\c2ccccc2)C(=O)O1 | > 20 | > 20 |  |
| C(=Nc1cccnc1)c1ccc2ccccc2n1 | > 81.3 | 44.7 |  |
| COc1cc2c(cc1OC)C[N+]1(C)CCc3cc(OC)c(OC)cc3C1C2 (centres undefined) | > 501 | > 501 |  |
| COc1ccc(NC(=O)C(=O)Cc2nc3ccc(C(=O)c4ccccc4)cc3[nH]c2=O)c([N+](=O)[O-])c1 | > 195 | 51.3 |  |
| O=CNC12C(=O)NC(=O)C1(C(=O)O)C21CCCCC1 (centres undefined) | > 200 | > 200 |  |
| O=c1[nH]c(=O)n(COCc2ccccc2)c2ccccc12 | > 200 | 174 |  |
| c1ccc(SC23C4C5C6C4C2C6C53)nc1 (centres undefined) | > 151 | 77.6 |  |
| CC(O)C(N=Cc1ccccc1[O-])C(=O)[O-].CC(O)C(N=Cc1ccccc1[O-])C(=O)[O-].[Co+2] (centres undefined) | > 363 | 64.6 |  |

| SMILES | EC50 [µM] | IC50 [µM] | outcome |
| --- | --- | --- | --- |
| CC(C)(C)c1cc(C(P(=O)(c2ccccc2)c2ccccc2)P(=O)(c2ccccc2)c2ccccc2)cc(C(C)(C)C)c1O | > 200 | 3.24 |  |
| CN1c2ccccc2S(=O)(=O)n2c(COc3ccccc3)nnc21 | > 200 | > 200 |  |
| O=c1c2ccccc2nc2sc(/N=C/C=C/c3ccccc3)nn12 | > 200 | 41.7 |  |
| COc1cccc(C=O)c1[O-].COc1cccc(C=O)c1[O-].[Ni+2] | > 50.1 | 35.5 |  |
| COc1cc(CNc2nc3ccccc3n2Cc2ccccc2)cc(CN2CCOCC2)c1O | > 200 | 32.4 |  |
| CN/N=C(/c1nc2ccc([N+](=O)[O-])cc2[nH]c1=O)C(O)c1ccc(C(O)/C(=N\NC)c2nc3ccc([N+](=O)[O-])cc3[nH]c2=O)cc1 (centres undefined) | > 107 | 77.6 |  |
| CC1NOC(=O)C1N=Nc1ccccc1Cl (centres undefined) | > 151 | 70.8 |  |
| CC1OC(OC2C(Oc3ccc4c(=O)c(-c5ccc(O)c(O)c5O)coc4c3)OC(CO)C(O)C2O)C(O)C(O)C1O (centres undefined) | > 200 | 67.6 |  |
| CC1=CC(=O)c2ccc3c4ccccc4n(C)c3c2C1=O | > 26.3 | > 26.3 |  |
| C(=C\CSc1ccccc1)/CSc1ccccc1 | > 13.8 | > 13.8 |  |
| CCCCCCCCCCCCCC(=O)NCC(=O)NC(CO)C(=O)NC(CO)C(=O)NC(CCCCN)C(=O)NC(CO)C(=O)NC(CCCCN)C(=O)N1CCCC1C(=O)NC(CCCCN)C(=O)NC(CC(=O)O)C(=O)N1CCCC1C(=O)NC(CO)C(=O)NC(CCC(N)=O)C(=O)NC(CCCNC(=N)N)C(=O)NC(CCCNC(=N)N)C(=O)NC(CCCNC(=N)N)C(=O)NC(Cc1ccc(O)cc1)C(N)=O (centres undefined) (Myristoyl-GSSKSKPKDPSQRRRY-NH2; configuration not given here) | > 120 | > 120 |  |
| NC(CO)C(=O)NC(CO)C(=O)NC(Cc1ccc(O)cc1)C(=O)NC(CO)C(=O)NC(CO)C(=O)O (centres undefined) (H-SSYSS-OH; configuration not given here) | > 93.3 | > 93.3 |  |
| CC1C(=O)C(C)C(c2ccco2)N(N=O)C1c1ccco1 (centres undefined) | > 234 | 132 |  |
| COc1cc2c(cc1OC)C(Cc1ccc(OC)c(OC)c1Oc1ccccc1)N(C)CC2 (centres undefined) |  |  | inactive |
| O=C(O)c1cc(-n2c(-c3ccccc3)cc3c2CCc2ccccc2-3)ccc1O |  |  | inactive |
| C/C=C/C=C/c1cc2cc3c(c(O)c2c(=O)[nH]1)C1(CC3)C(O)=c2c(=O)c3c(=O)cc(OC)c(=O)c=3c(=O)c2=C1O (centres undefined) | > 200 | 5.89 |  |
| Cc1c(O)c2ccccc2[nH]c1=O | > 200 | > 200 |  |
| O=C(Nc1ccc(Cl)c(Cl)c1)NN1CCCCCC1 |  |  | inactive |
| CC1(C)OC(=O)C(CC(=O)O)O1 (centres undefined) |  |  | inactive |
| COc1ccc2nccc(NCCCN3CCN(CCCNc4ccnc5ccc(OC)cc45)CC3)c2c1 | > 0.537 | 0.105 |  |
| NC(CSSCC(N)=NC1CCCCC1)=NC1CCCCC1 | > 200 | 95.5 |  |

| SMILES | EC50 [µM] | IC50 [µM] | outcome |
| --- | --- | --- | --- |
| CCCCNC(=O)CCN(C(=O)O)S(=O)(=O)c1ccc(NC(=O)c2ccccc2)cc1 | > 112 | > 112 |  |
| CCOC(=O)C1(Cc2ccccc2)Cc2cc3c(cc2C1)CCC3 | > 200 | 33.9 |  |
| CCOC(=O)C1(c2ccc(O)c(O)c2)CCN(C)CC1 | > 794 | 380 |  |
| OC1(c2ccccc2)c2ccccc2Oc2ccccc21 | > 200 | 17.4 |  |
| Cc1ccc(-c2c(C#N)c(-c3ccc(N(C)C)cc3)c(C#N)c(=O)n2NS(=O)(=O)c2ccccc2)cc1 | > 200 | 18.2 |  |
| c1cc(CN2CCNCCNCCNCC2)cc(CN2CCNCCNCCNCC2)c1 | > 200 | > 200 |  |
| COc1ccc(Cc2nnc(C)c3c(C)[nH]nc23)cc1 | > 525 | 33.9 |  |
| O=c1[nH]c2cc(Cl)ccc2nc1/C(=N\O)C(O)c1cccc([N+](=O)[O-])c1 (centres undefined) | > 661 | 646 |  |
| Cc1cccc2c(=O)c3cccc([C@@H](C)C(=O)O)c3oc12 | > 200 | 67.6 |  |
| COc1ccccc1NC(=O)C(/C=N/C(=S)NCCNc1ccc(OC)c(OC)c1)=C(\C)O | > 200 | 51.3 |  |
| CC(C)CCC[C@@H](C)[C@H]1CC[C@H]2[C@@H]3CC[C@H]4C[C@@H](NC(=O)CC=C(c5cc(Cl)c(O)c(C(=O)O)c5)c5cc(Cl)c(O)c(C(=O)O)c5)CC[C@]4(C)[C@H]3CC[C@]12C | 24 | 170 |  |
| N#CCN(CC#N)C1CC=CCC1N(CC#N)CC#N (centres undefined) | > 200 | 102 |  |
| CC(=O)OCC1OC(n2c(-c3ccc(N)cc3)cc(-c3ccco3)c(C#N)c2=O)C(OC(C)=O)C(OC(C)=O)C1OC(C)=O (centres undefined) | > 11.7 | > 11.7 |  |
| O=C1CCCCC/C1=C\c1ccccc1 | > 200 | 52.5 |  |
| O=C(OC/C=C1C=C(OC(=O)c2ccccc2)/C(=N/N(C(=O)c2ccccc2)c2ccccc2)O\1)c1ccccc1 | > 200 | 11 |  |
| COc1cc2c(c(OC)c1OC)C(c1ccc3c(c1)OCO3)C1COC(=O)C1C2 (centres undefined) | > 91.2 | > 91.2 |  |
| N#Cc1c2c(c(N3CCOCC3)n3c1nc1ccccc13)CCCC2 | > 200 | 8.32 |  |
| C[S+](C)C1(c2ccccc2)C(=O)c2ccccc2C1=O | > 575 | > 575 |  |

Reference: PubChem BioAssay AID179 (DTP/NCI, 2004)
